Data as given in ChEMBL document CHEMBL1201862, “PubChem BioAssay data set” (2004).
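Each compound was tested at five concentrations against cells in 96-well plates for 48 hours. GI50: concentration for 50% inhibition of growth.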 Activity calls are given as the source filed them. Cut-off read from the data, not from the text of the source: active = GI50 up to about 1.1 µM and inactive = higher.

How the values were obtained:
Assay in all cases: NCI tumour cell line growth inhibition, 48 h
OVCAR-3 = test system: OVCAR-3
M14 = test system: M14
CCRF-CEM = test system: CCRF-CEM
MDA-MB-231 = test system: MDA-MB-231
UO-31 = test system: UO-31
RPMI-8226 = test system: RPMI-8226
HCT-116 = test system: HCT-116
UACC-257 = test system: UACC-257
COLO 205 = test system: COLO 205
MDA-MB-435 = test system: MDA-MB-435
SNB-75 = test system: SNB-75
IGROV-1 = test system: IGROV-1
RXF 393 = test system: RXF 393
NCI-H522 = test system: NCI-H522
ACHN = test system: ACHN
NCI-H226 = test system: NCI-H226
SW-620 = test system: SW-620
HCC 2998 = test system: HCC 2998
OVCAR-5 = test system: OVCAR-5
EKVX = test system: EKVX
K562 = test system: K562
T47D = test system: T47D
HL-60 = test system: HL-60
SK-MEL-5 = test system: SK-MEL-5
SF-539 = test system: SF-539
OVCAR-4 = test system: OVCAR-4
KM12 = test system: KM12
SK-OV-3 = test system: SK-OV-3
Malme-3M = test system: Malme-3M
SF-295 = test system: SF-295
SNB-19 = test system: SNB-19
786-0 = test system: 786-0
SN12C = test system: SN12C
SK-MEL-28 = test system: SK-MEL-28
MCF7 = test system: MCF7
SF-268 = test system: SF-268
OVCAR-8 = test system: OVCAR-8
MOLT-4 = test system: MOLT-4
DU-145 = test system: DU-145
PC-3 = test system: PC-3
UACC-62 = test system: UACC-62
LOX IMVI = test system: LOX IMVI
A498 = test system: A498
TK-10 = test system: TK-10
HCT-15 = test system: HCT-15
HOP-92 = test system: HOP-92
MDA-N = test system: MDA-N
Hs-578T = test system: Hs-578T
NCI-H460 = test system: NCI-H460
A549 = test system: A549
NCI-H23 = test system: NCI-H23
SK-MEL-2 = test system: SK-MEL-2
CAKI-1 = test system: CAKI-1
U-251 = test system: U-251
NCI/ADR-RES = test system: NCI/ADR-RES
HOP-62 = test system: HOP-62
HT-29 = test system: HT-29

Measured: GI50

C=C(COCO)C(C)=O
inactive: OVCAR-3 11.6 µM | M14 13 µM | CCRF-CEM 2.86 µM | MDA-MB-231 18.8 µM | UO-31 12.2 µM | RPMI-8226 2.94 µM | HCT-116 13.5 µM | UACC-257 15.3 µM | COLO 205 7.52 µM | MDA-MB-435 14.2 µM | SNB-75 16.3 µM | IGROV-1 20.1 µM | RXF 393 14.3 µM | NCI-H522 2.14 µM | ACHN 15.7 µM | NCI-H226 > 61 µM | SW-620 3.3 µM | HCC 2998 27.9 µM | OVCAR-5 20.5 µM | EKVX 20.4 µM | K562 3.45 µM | T47D 15.7 µM | HL-60 3.48 µM | SK-MEL-5 17.5 µM | SF-539 6.24 µM | OVCAR-4 17.9 µM | KM12 > 40.3 µM | SK-OV-3 48.9 µM | Malme-3M 9.73 µM | SF-295 > 75 µM | SNB-19 > 66.8 µM | 786-0 12 µM | SN12C 18.4 µM | SK-MEL-28 16.8 µM | MCF7 16.3 µM | SF-268 20 µM | OVCAR-8 8.51 µM | MOLT-4 2.66 µM | DU-145 26 µM | PC-3 19.1 µM | UACC-62 17.2 µM | LOX IMVI 15.9 µM | A498 27.9 µM | TK-10 13.7 µM | HOP-92 27 µM | MDA-N 16.9 µM | Hs-578T 23.9 µM | NCI-H460 22 µM | A549 26 µM | NCI-H23 17.5 µM | SK-MEL-2 22.8 µM | CAKI-1 2.5 µM | U-251 24.5 µM | NCI/ADR-RES 22.4 µM | HOP-62 > 47.1 µM | HT-29 17.7 µM
21.4 µM: HCT-15
